Measurements from patent publication US4221803A, “Substituted dibenzyl ethers and pharmaceutical compositions containing said ethers for the treatment of infections” (Recordati, S.A., priority 1979, dated 1980).
Values after ≈ are worked out from the molar mass of the structure shown. Where two headings read alike, the source gives them in different places.

What was measured:
[1] = Acute toxicity per os in the mouse; conditions: in vivo, po
Excerpt: In Table I are reported the acute toxicity values (LD50) of the compounds I and of both the comparison substances. Toxicity, given in mg/Kg, has been evaluated per os in the mouse by conventional methods.

C.Albicans 1040 = assay: Antimycotic activity, two-fold serial broth dilution; format: cell-based; conditions: Candida albicans, Sabouraud liquid pH 5.7, 37° C., 48 hours
Description: (§1) In Table II are reported the minimal inhibent concentrations (MIC) of the compounds I and of both the comparison substances. For MIC, the minimal concentration is intended, i.e., one which is able to inhibit the growth of several fungi and yeasts. The MIC values have been determined according to the usual two-fold serial broth dilution technique.
(§2) Medium: Sabouraud liquid pH 5.7 (5 ml per tube)
(§3) Inoculum: Yeasts were grown in Sabouraud liquid for 24 hours (Cryptococcus neoformans for 2 days). Cells were collected by centrifugation at 6500 rpm and again suspended in physiological solution so as to have a suspension giving on a Coleman Jr II spectrophotometer, at a wavelength of 650 nm, a 50% transparence (T). 0.1 ml of this suspension constituted the inoculum for 5 ml.
(§4) Temperature and incubation time: 37° C. for 48 hours.

C.Albicans 1041 = assay: as above; format: cell-based; conditions: Candida albicans, Sabouraud liquid pH 5.7, 37° C., 48 hours
Description: as §1, §2, §3, §4

C.Albicans Grunenthal = assay: as above; format: cell-based; conditions: Candida albicans, Sabouraud liquid pH 5.7, 37° C., 48 hours
Description: as §1, §2, §3, §4

C.Albicans R = assay: as above; format: cell-based; conditions: Candida albicans, Sabouraud liquid pH 5.7, 37° C., 48 hours
Description: as §1, §2, §3, §4

C.Neoformans = assay: as above; format: cell-based; conditions: Cryptococcus neoformans
Description: as §1, §2, §3, §4

A.Niger = assay: as above; format: cell-based; conditions: Aspergillus niger, 168 h, Sabouraud liquid pH 5.7, 25° C., 7 days, inoculum 1/10 dilution
Description: as §1, §2
(§5) For Aspergillus niger, after filtration, a 1/10 dilution in physiological solution was prepared. 0.1 ml of this dilution constituted the inoculum for 5 ml.
(§6) Temperature and incubation time: 25° C. for 7 days.

E.Floccosum = assay: as above; format: cell-based; conditions: Epidermophyton floccosum, 168 h, Sabouraud liquid pH 5.7, 25° C., 7 days
Description: as §1, §2, §5, §6

M.Canis 28 = assay: as above; format: cell-based; conditions: Microsporum canis, 168 h, Sabouraud liquid pH 5.7, 25° C., 7 days
Description: as §1, §2, §5, §6

P.Chrysogenum = assay: as above; format: cell-based; conditions: Penicillium chrysogenum, 168 h, Sabouraud liquid pH 5.7, 25° C., 7 days
Description: as §1, §2, §5, §6

T.Mentagroph. 10148 = assay: as above; format: cell-based; conditions: 168 h
Description: as §1, §2, §5, §6

T.Mentagroph. 2538 = assay: as above; format: cell-based; conditions: 168 h, Sabouraud liquid pH 5.7, 25° C., 7 days
Description: as §1, §2, §5, §6

T.Mentagroph. 5865 = assay: as above; format: cell-based; conditions: 168 h, Sabouraud liquid pH 5.7, 25° C., 7 days
Description: as §1, §2, §5, §6

T.Rubrum 2121 = assay: as above; format: cell-based
Description: as §1, §2, §5, §6

T.Verrucosum = assay: as above; format: cell-based; conditions: Trichophyton verrucosum, 168 h
Description: as §1, §2, §5, §6

B.subtilis = assay: Antibacterial activity, two-fold serial broth dilution; format: cell-based; conditions: Bacillus subtilis
Description: (§7) The MIC values of the products under examination and of both comparison substances, referred to a certain number of gram positive bacteria and determined according to the conventional two-fold serial broth dilution technique, are reported in Table III.
(§8) Medium: Tryptic soy broth pH 7.3 (5 ml per tube)
(§9) Inoculum: The day before the test, the microorganisms to be tested were transplanted in their respective media. After 18 hours incubation at 37° C., 0.1 ml of a 1:100 diluted suspension of each strain in broth, were inoculated in 5 ml of medium containing the products under examination at a serial concentration of from 0.009 to 160 mcg/ml.
(§10) Temperature and incubation time: 37° C. for 18 hours.

Cl. novyi = assay: as above; format: cell-based; conditions: Clostridium novyi, Tryptic soy broth pH 7.3, 37° C., 18 hours
Description: as §7, §8, §9, §10

S.aureus 10B = assay: as above; format: cell-based; conditions: Staphylococcus aureus
Description: as §7, §8, §9, §10

S.aureus SG 511 = assay: as above; format: cell-based; conditions: Staphylococcus aureus
Description: as §7, §8, §9, §10

Str.hemolyt 203 = assay: as above; format: cell-based
Description: as §7, §8, §9, §10

Str.hemolyt 821 = assay: as above; format: cell-based; conditions: Tryptic soy broth pH 7.3, 37° C., 18 hours
Description: as §7, §8, §9, §10

[2] = C.Neoformans, Sabouraud liquid pH 5.7, 37° C., 48 hours, read-out: Antimycotic activity (MIC)
[3] = T.Mentagroph. 10148, Sabouraud liquid pH 5.7, 25° C., 7 days, read-out: Antimycotic activity (MIC)
[4] = Trichophyton rubrum, 168 h, T.Rubrum 2121, Sabouraud liquid pH 5.7, 25° C., 7 days, read-out: Antimycotic activity (MIC)
[5] = T.Verrucosum, Sabouraud liquid pH 5.7, 25° C., 7 days, read-out: Antimycotic activity (MIC)
[6] = B.subtilis, Tryptic soy broth pH 7.3, 37° C., 18 hours, read-out: Antibacterial activity (MIC)
[7] = S.aureus 10B, Tryptic soy broth pH 7.3, 37° C., 18 hours, read-out: Antibacterial activity (MIC)
[8] = SG511, S.aureus SG 511, Tryptic soy broth pH 7.3, 37° C., 18 hours, read-out: Antibacterial activity (MIC)
[9] = Str.hemolyt 203, Tryptic soy broth pH 7.3, 37° C., 18 hours, read-out: Antibacterial activity (MIC)
[10] = 48 h, pH 5.7, read-out: Antimycotic activity (MIC)
[11] = pH 5.7, read-out: Antimycotic activity (MIC)
[12] = Trichophyton rubrum, 2121, 168 h, pH 5.7, read-out: Antimycotic activity (MIC)
[13] = 18 h, pH 7.3, read-out: Antibacterial activity (MIC)
[14] = 10B, 18 h, pH 7.3, read-out: Antibacterial activity (MIC)
[15] = SG511, 18 h, pH 7.3, read-out: Antibacterial activity (MIC)

Clc1ccc(C(Cn2ccnc2)OCc2ccc(Sc3ccccc3)cc2)c(Cl)c1 (stereo not drawn) [R=C6 H5 S, 2,4-Dichloro-4'-phenylthio-α-(N-imidazolyl-methyl)-dibenzyl ether]
LD50 [1]: 3000 mg/kg
MIC (C.Albicans 1040): 80 µg/mL (≈ 176 µM)
MIC (C.Albicans 1041): 80 µg/mL (≈ 176 µM)
MIC (C.Albicans Grunenthal): 40 µg/mL (≈ 87.8 µM)
MIC (C.Albicans R): 40 µg/mL (≈ 87.8 µM)
MIC (C.Neoformans; [2]): 0.156 µg/mL (≈ 0.343 µM)
MIC (A.Niger): 10 µg/mL (≈ 22 µM)
MIC (E.Floccosum): 5 µg/mL (≈ 11 µM)
MIC (M.Canis 28): 2.5 µg/mL (≈ 5.49 µM)
MIC (P.Chrysogenum): 5 µg/mL (≈ 11 µM)
MIC (T.Mentagroph. 10148; [3]): 0.625 µg/mL (≈ 1.37 µM)
MIC (T.Mentagroph. 2538): 0.156 µg/mL (≈ 0.343 µM)
MIC (T.Mentagroph. 5865): 1.25 µg/mL (≈ 2.74 µM)
MIC (T.Rubrum 2121; [4]): 0.625 µg/mL (≈ 1.37 µM)
MIC (T.Verrucosum; [5]): 1.25 µg/mL (≈ 2.74 µM)
MIC (B.subtilis; [6]): 0.078 µg/mL (≈ 0.171 µM)
MIC (Cl. novyi): 5 µg/mL (≈ 11 µM)
MIC (S.aureus 10B; [7]): 0.018 µg/mL (≈ 0.0395 µM)
MIC (S.aureus SG 511; [8]): 0.039 µg/mL (≈ 0.0856 µM)
MIC (Str.hemolyt 203; [9]): 0.078 µg/mL (≈ 0.171 µM)
MIC (Str.hemolyt 821): 0.156 µg/mL (≈ 0.343 µM)

Clc1ccccc1C(c1ccccc1)(c1ccccc1)n1ccnc1 [Clotrimazole, [(imidazol-1-yl)-2-(o-chlorophenyl)-2,2-diphenylmethane]]
LD50 [1]: 880 mg/kg
MIC (C.Albicans 1040): 40 µg/mL (≈ 116 µM)
MIC (C.Albicans 1041): 40 µg/mL (≈ 116 µM)
MIC (C.Albicans Grunenthal): 10 µg/mL (≈ 29 µM)
MIC (C.Albicans R): 10 µg/mL (≈ 29 µM)
MIC (C.Neoformans; [10]): 0.625 µg/mL (≈ 1.81 µM)
MIC (A.Niger): 10 µg/mL (≈ 29 µM)
MIC (E.Floccosum): 5 µg/mL (≈ 14.5 µM)
MIC (M.Canis 28): 2.5 µg/mL (≈ 7.25 µM)
MIC (P.Chrysogenum): 40 µg/mL (≈ 116 µM)
MIC (T.Mentagroph. 10148; [11]): 1.25 µg/mL (≈ 3.62 µM)
MIC (T.Mentagroph. 2538): 0.078 µg/mL (≈ 0.226 µM)
MIC (T.Mentagroph. 5865): 0.62 µg/mL (≈ 1.8 µM)
MIC (T.Rubrum 2121; [12]): 1.25 µg/mL (≈ 3.62 µM)
MIC (T.Verrucosum; [11]): 1.25 µg/mL (≈ 3.62 µM)
MIC (B.subtilis; [13]): 2.5 µg/mL (≈ 7.25 µM)
MIC (Cl. novyi): > 160 µg/mL
MIC (S.aureus 10B; [14]): 1.25 µg/mL (≈ 3.62 µM)
MIC (S.aureus SG 511; [15]): 0.312 µg/mL (≈ 0.905 µM)
MIC (Str.hemolyt 203; [9]): 5 µg/mL (≈ 14.5 µM)
MIC (Str.hemolyt 821): 2.5 µg/mL (≈ 7.25 µM)

Clc1ccc(C(Cn2ccnc2)OCc2ccc(-c3ccccc3)cc2)c(Cl)c1 (stereo not drawn) [R=C6 H5, 2,4-Dichloro-4'-phenyl-α-(N-imidazolyl-methyl)-dibenzyl ether]
LD50 [1]: 2400 mg/kg
MIC (C.Albicans 1040): 10 µg/mL (≈ 23.6 µM)
MIC (C.Albicans 1041): 20 µg/mL (≈ 47.2 µM)
MIC (C.Albicans Grunenthal): 5 µg/mL (≈ 11.8 µM)
MIC (C.Albicans R): 5 µg/mL (≈ 11.8 µM)
MIC (C.Neoformans; [2]): 0.312 µg/mL (≈ 0.737 µM)
MIC (A.Niger): 20 µg/mL (≈ 47.2 µM)
MIC (E.Floccosum): 10 µg/mL (≈ 23.6 µM)
MIC (M.Canis 28): 20 µg/mL (≈ 47.2 µM)
MIC (P.Chrysogenum): 20 µg/mL (≈ 47.2 µM)
MIC (T.Mentagroph. 10148; [3]): 0.625 µg/mL (≈ 1.48 µM)
MIC (T.Mentagroph. 2538): 0.156 µg/mL (≈ 0.368 µM)
MIC (T.Mentagroph. 5865): 1.25 µg/mL (≈ 2.95 µM)
MIC (T.Rubrum 2121; [4]): 0.625 µg/mL (≈ 1.48 µM)
MIC (T.Verrucosum; [5]): 10 µg/mL (≈ 23.6 µM)
MIC (B.subtilis; [6]): 0.156 µg/mL (≈ 0.368 µM)
MIC (Cl. novyi): < 1.25 µg/mL
MIC (S.aureus 10B; [7]): 0.039 µg/mL (≈ 0.0921 µM)
MIC (S.aureus SG 511; [8]): 0.039 µg/mL (≈ 0.0921 µM)
MIC (Str.hemolyt 203; [9]): 0.312 µg/mL (≈ 0.737 µM)
MIC (Str.hemolyt 821): 0.156 µg/mL (≈ 0.368 µM)

Clc1ccc(COC(Cn2ccnc2)c2ccc(Cl)cc2Cl)c(Cl)c1 (stereo not drawn) [Miconazole, 2,2',4,4'-tetrachloro-α-(N-imidazolyl-methyl)-dibenzyl ether]
LD50 [1]: 870 mg/kg
MIC (C.Albicans 1040): 20 µg/mL (≈ 48.1 µM)
MIC (C.Albicans 1041): 20 µg/mL (≈ 48.1 µM)
MIC (C.Albicans Grunenthal): 5 µg/mL (≈ 12 µM)
MIC (C.Albicans R): 5 µg/mL (≈ 12 µM)
MIC (C.Neoformans; [10]): 0.078 µg/mL (≈ 0.187 µM)
MIC (A.Niger): 40 µg/mL (≈ 96.1 µM)
MIC (E.Floccosum): 5 µg/mL (≈ 12 µM)
MIC (M.Canis 28): 5 µg/mL (≈ 12 µM)
MIC (P.Chrysogenum): 20 µg/mL (≈ 48.1 µM)
MIC (T.Mentagroph. 10148; [11]): 0.625 µg/mL (≈ 1.5 µM)
MIC (T.Mentagroph. 2538): 0.078 µg/mL (≈ 0.187 µM)
MIC (T.Mentagroph. 5865): 0.31 µg/mL (≈ 0.745 µM)
MIC (T.Rubrum 2121; [12]): 0.312 µg/mL (≈ 0.75 µM)
MIC (T.Verrucosum; [5]): 2.5 µg/mL (≈ 6.01 µM)
MIC (B.subtilis; [13]): 0.625 µg/mL (≈ 1.5 µM)
MIC (Cl. novyi): < 1.25 µg/mL
MIC (S.aureus 10B; [14]): 0.312 µg/mL (≈ 0.75 µM)
MIC (S.aureus SG 511; [15]): 0.312 µg/mL (≈ 0.75 µM)
MIC (Str.hemolyt 203; [13]): 0.625 µg/mL (≈ 1.5 µM)
MIC (Str.hemolyt 821): 1.25 µg/mL (≈ 3 µM)
